Test results as given in PubChem BioAssay AID2060329 (Molecular Pharmacology Branch, DTP, NCI, 2025).

System: MCF7 multi-cell spheroids with HUVEC/MSC, viability
Test: Anticancer human tumor MCF7 cell line growth inhibition [IpAb];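 also: spheroids exposed to agents for seven days before readout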
Conditions: for IC50: curve of first compound; for viability, T/C: stronger effect = lower value
Excerpt: Combinatorial screen of targeted agents with ipatasertib and abemaciclib in multi-cell type tumor spheroids
A high-throughput screen of multi-cell type tumor spheroids was designed to identify active combinations of targeted small molecules and ipatasertib or abemaciclib. Complex spheroids include a stromal component modeled by human endothelial cells (HUVEC) and fibroblasts modeled by human mesenchymal stem cells (MSCs). The concentration ranges selected for each drug and investigational agent were based upon clinically achievable concentrations if the clinical Cmax of the agent was known.
Compounds. The drugs and investigational agents: ipatasertib (NSC767898), abemaciclib(NSC768073), selumetinib (NSC741078), trametinib (758246), adavosertib (NSC754352), everolimus (NSC733504), sapanisertib (NSC764658), vemurafenib (NSC761431), venetoclax (NSC766270), copanlisib (NSC809693), apelisib (NSC765974), palbociblib (NSC758247), vemurafenib (NSC761431), dabrafenib (NSC764134), ravoxertinib (NSC781343), BMS-387032 (NSC767048), sotorasib (NSC818433), talazoparib (NSC767125) and afursertib (NSC778305), were obtained from the National Cancer Institute (NCI) Developmental Therapeutics Program Chemical Repository. The FDA-approved anticancer drug set is available from the NCI Developmental Therapeutics Program. […] The stock solutions were prepared in dimethyl sulfoxide (DMSO, Sigma-Aldrich, St. Louis, MO, cat. D2650) at 800-fold the tested concentration and stored at -70 degrees C prior to their use. All drugs and investigational agents were tested over a range starting from a high concentration at or near the clinical Cmax and decreasing in half-log increments. If the clinical Cmax for an agent had not been determined, the highest concentration tested was 10 microM.
NCI60 Cell Culture. NCI60 cell lines were obtained from the NCI Developmental Therapeutics Program Tumor Repository. For each lot of cells, the Repository performed Applied Biosystems AmpFLSTR Identifiler testing with PCR amplification to confirm consistency with the published Identifier STR profile for each cell line. Cells were kept in continuous culture for no more than 20 passages. The optimal seeding densities for each of the cell lines at each time point assessed were determined prior to performing the concentration response studies. Briefly, the NCI60 human tumor lines were grown as monolayers in RPMI 1640 medium supplemented with 10% FBS and 2 mmol/L L-glutamine.
An additional 9 lines were from the NCI60 cell line panel including MDA-MB-231 breast carcinoma, MDA-MB-468 breast carcinoma, MCF7 breast carcinoma, Hs578T breast carcinoma, MALME-3M melanoma, SK-MEL-2 melanoma, SK-OV-3 ovarian carcinoma, DU-145 prostate carcinoma, PC-3 prostate carcinoma, all cell lines along with major genetic alterations are listed on Table 2. Pooled donor human umbilical vein endothelial cells (HUVEC, Lonza, cat. CC-2519) and human mesenchymal stem cells (hMSC, Lonza, cat. PT-2501) were purchased from Lonza (Walkersville, MD).
PDMR cell lines were grown in complete medium (DC medium): Dulbecco's modified Eagle's medium (DMEM)/F12 supplemented with 5% fetal bovine serum (FBS), 2 mM L-glutamine, 100 U/mL penicillin and 100 µg/ml streptomycin, 0.4 µg/ml hydrocortisone, 10 ng/ml epidermal growth factor (EGF) recombinant human protein, 24 µg/mL adenine, and 0.1 mg/mL primocin. During culture from frozen stock vials, PDMR cells were cultured in the same medium containing 10 µM Y-27632 (see Table 3). The PDCs were cultured in complete DMEM/F12 media without 10 microM Y-27632 dihydrochloride for at least two passages prior to the screen. The pooled donor HUVEC and hMSC were cultured in endothelial cell growth medium 2 (PromoCell, Heidelberg, Germany, cat. C-22011) and mesenchymal stem cell growth medium 2 (PromoCell, cat. C-28009), respectively. For all experiments, HUVEC and hMSC were used at passages </=5.
[…]

[1] = second compound 0.1 µM, first compound 0.0316 µM
[2] = second compound 0.1 µM, first compound 0.1 µM
[3] = second compound 0.1 µM, first compound 0.316 µM
[4] = second compound 0.1 µM, first compound 1 µM
[5] = second compound 0.1 µM, first compound 3.16 µM
[6] = second compound 0.1 µM, first compound 10 µM
[7] = second compound 0.316 µM, first compound 0.0316 µM
[8] = second compound 0.316 µM, first compound 0.1 µM
[9] = second compound 0.316 µM, first compound 0.316 µM
[10] = second compound 0.316 µM, first compound 1 µM
[11] = second compound 0.316 µM, first compound 3.16 µM
[12] = second compound 0.316 µM, first compound 10 µM
[13] = second compound 1 µM, first compound 0.0316 µM
[14] = second compound 1 µM, first compound 0.1 µM
[15] = second compound 1 µM, first compound 0.316 µM
[16] = second compound 1 µM, first compound 1 µM
[17] = second compound 1 µM, first compound 3.16 µM
[18] = second compound 1 µM, first compound 10 µM

Row | SMILES | IC50 (second compound 0.1 µM) [µM] | IC50 (second compound 0.316 µM) [µM] | IC50 (second compound 1 µM) [µM] | viability, T/C [1] [%] | viability, T/C [2] [%] | viability, T/C [3] [%] | viability, T/C [4] [%] | viability, T/C [5] [%] | viability, T/C [6] [%] | viability, T/C [7] [%] | viability, T/C [8] [%] | viability, T/C [9] [%] | viability, T/C [10] [%] | viability, T/C [11] [%] | viability, T/C [12] [%] | viability, T/C [13] [%] | viability, T/C [14] [%] | viability, T/C [15] [%] | viability, T/C [16] [%] | viability, T/C [17] [%] | also measured
1 | C=CCn1c(=O)c2cnc(Nc3ccc(N4CCN(C)CC4)cc3)nc2n1-c1cccc(C(C)(C)O)n1 + CC(C)NCC(C(=O)N1CCN(c2ncnc3c2C(C)CC3O)CC1)c1ccc(Cl)cc1 | 0.543 | 0.367 | 0.169 | 89.1 | 99.2 | 67.4 | 31.8 | 26.3 | 33 | 77.8 | 80.9 | 49.4 | 37.4 | 23.2 | 27 | 64.2 | 61.6 | 36.5 | 20.9 | 17.7 | IC50 (second compound 3.16 µM): < 0.0316 µM; IC50 (second compound 10 µM): < 0.0316 µM; viability, T/C [18]: 16.4%; viability, T/C (second compound 3.16 µM, first compound 0.0316 µM): 49.6%; viability, T/C (second compound 3.16 µM, first compound 0.1 µM): 38.2%; viability, T/C (second compound 3.16 µM, first compound 0.316 µM): 25.5%; viability, T/C (second compound 3.16 µM, first compound 1 µM): 14.6%; viability, T/C (second compound 3.16 µM, first compound 3.16 µM): 11.2%; viability, T/C (second compound 3.16 µM, first compound 10 µM): 7.69%; viability, T/C (second compound 10 µM, first compound 0.0316 µM): 42.4%; viability, T/C (second compound 10 µM, first compound 0.1 µM): 33.2%; viability, T/C (second compound 10 µM, first compound 0.316 µM): 19.4%; viability, T/C (second compound 10 µM, first compound 1 µM): 10.6%; viability, T/C (second compound 10 µM, first compound 3.16 µM): 8.49%; viability, T/C (second compound 10 µM, first compound 10 µM): 4.08%
2 | CC1(C)CCC(CN2CCN(c3ccc(C(=O)NS(=O)(=O)c4ccc(NCC5CCOCC5)c([N+](=O)[O-])c4)c(Oc4cnc5[nH]ccc5c4)c3)CC2)=C(c2ccc(Cl)cc2)C1 + CCN1CCN(Cc2ccc(Nc3ncc(F)c(-c4cc(F)c5nc(C)n(C(C)C)c5c4)n3)nc2)CC1 | 6.63 | 6.29 | 5.39 | 107 | 118 | 102 | 106 | 104 | 20.1 | 99.5 | 117 | 116 | 104 | 98.6 | 17 | 105 | 107 | 101 | 92.7 | 87.7 | IC50 (second compound 0.01 µM): 7.02 µM; IC50 (second compound 0.0316 µM): 7.01 µM; viability, T/C (second compound 0.01 µM, first compound 0.0316 µM): 107%; viability, T/C (second compound 0.01 µM, first compound 0.1 µM): 93.2%; viability, T/C (second compound 0.01 µM, first compound 0.316 µM): 109%; viability, T/C (second compound 0.01 µM, first compound 1 µM): 96.8%; viability, T/C (second compound 0.01 µM, first compound 3.16 µM): 111%; viability, T/C (second compound 0.01 µM, first compound 10 µM): 26.4%; viability, T/C (second compound 0.0316 µM, first compound 0.0316 µM): 97.8%; viability, T/C (second compound 0.0316 µM, first compound 0.1 µM): 94.8%; viability, T/C (second compound 0.0316 µM, first compound 0.316 µM): 94.9%; viability, T/C (second compound 0.0316 µM, first compound 1 µM): 91.5%; viability, T/C (second compound 0.0316 µM, first compound 3.16 µM): 104%; viability, T/C (second compound 0.0316 µM, first compound 10 µM): 29.2%; viability, T/C [18]: 9.36%
